Tests used:
Human Calpain 1/NS1 = molecular target: T1, Human Calpain 1/NS1 (Homo sapiens, UniProt P07384); assay: Calpain inhibition, continuous fluorescence (FRET substrate) assay, calpain 1; assay type: biochemical; conditions: SensoLyte 520 FRET substrate, 25C
T1 sequence (P07384 1-714): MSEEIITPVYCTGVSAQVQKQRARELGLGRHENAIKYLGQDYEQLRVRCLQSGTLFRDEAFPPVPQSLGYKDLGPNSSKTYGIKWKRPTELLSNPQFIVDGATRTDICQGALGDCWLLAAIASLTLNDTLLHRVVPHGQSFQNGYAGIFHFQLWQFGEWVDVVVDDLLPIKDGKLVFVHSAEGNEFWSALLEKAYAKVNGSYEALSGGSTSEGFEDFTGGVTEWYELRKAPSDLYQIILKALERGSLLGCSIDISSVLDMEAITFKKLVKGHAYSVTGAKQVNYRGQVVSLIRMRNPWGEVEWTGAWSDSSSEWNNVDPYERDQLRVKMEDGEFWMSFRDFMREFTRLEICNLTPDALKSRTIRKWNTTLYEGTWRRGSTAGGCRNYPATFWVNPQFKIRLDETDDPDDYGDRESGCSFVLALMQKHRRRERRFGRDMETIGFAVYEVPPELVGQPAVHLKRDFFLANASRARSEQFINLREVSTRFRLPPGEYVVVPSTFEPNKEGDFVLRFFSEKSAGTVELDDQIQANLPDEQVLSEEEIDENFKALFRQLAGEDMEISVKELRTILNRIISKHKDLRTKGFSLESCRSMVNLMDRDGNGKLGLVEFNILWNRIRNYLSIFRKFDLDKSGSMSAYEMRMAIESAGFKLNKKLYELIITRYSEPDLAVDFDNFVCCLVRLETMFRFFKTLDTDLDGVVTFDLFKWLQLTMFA
T1 sequence (P04632 1-268 partner): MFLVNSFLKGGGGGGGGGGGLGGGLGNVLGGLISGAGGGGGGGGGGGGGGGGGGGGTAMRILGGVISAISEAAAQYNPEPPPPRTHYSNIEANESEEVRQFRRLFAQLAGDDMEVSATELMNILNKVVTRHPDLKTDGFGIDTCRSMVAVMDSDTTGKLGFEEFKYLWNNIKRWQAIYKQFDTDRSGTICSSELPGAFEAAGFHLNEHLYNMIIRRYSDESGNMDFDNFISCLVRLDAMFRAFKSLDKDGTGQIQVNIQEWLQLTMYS
Outline: (§1)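 Continuous FRET read-out (ex 490/em 520 nm) of 5-FAM/QXL 520 substrate cleavage, started by adding substrate with CaCl2 for in-situ activation after enzyme–inhibitor preincubation at 25 °C. Buffer was Tris 50 mM pH 7.5, NaCl 100 mM, DTT 1 mM. IC50 fitted (4-parameter) from rates over 1-5 min.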

[1] = tested on: Calpain activity in SH-SY5Y cells; assay: SH-SY5Y Suc-LLVY-AMC fluorescence assay; assay type: cell-based; conditions: Homo sapiens, read-out: SH-SY5Y + AMC IC50
Human Calpain 9/NS1 = molecular target: T2, Human Calpain 9/NS1 (Homo sapiens, UniProt O14815); assay: Calpain inhibition, continuous fluorescence (FRET substrate) assay, calpain 9; assay type: biochemical; conditions: SensoLyte 520 FRET substrate, 25C
T2 sequence (O14815 1-690): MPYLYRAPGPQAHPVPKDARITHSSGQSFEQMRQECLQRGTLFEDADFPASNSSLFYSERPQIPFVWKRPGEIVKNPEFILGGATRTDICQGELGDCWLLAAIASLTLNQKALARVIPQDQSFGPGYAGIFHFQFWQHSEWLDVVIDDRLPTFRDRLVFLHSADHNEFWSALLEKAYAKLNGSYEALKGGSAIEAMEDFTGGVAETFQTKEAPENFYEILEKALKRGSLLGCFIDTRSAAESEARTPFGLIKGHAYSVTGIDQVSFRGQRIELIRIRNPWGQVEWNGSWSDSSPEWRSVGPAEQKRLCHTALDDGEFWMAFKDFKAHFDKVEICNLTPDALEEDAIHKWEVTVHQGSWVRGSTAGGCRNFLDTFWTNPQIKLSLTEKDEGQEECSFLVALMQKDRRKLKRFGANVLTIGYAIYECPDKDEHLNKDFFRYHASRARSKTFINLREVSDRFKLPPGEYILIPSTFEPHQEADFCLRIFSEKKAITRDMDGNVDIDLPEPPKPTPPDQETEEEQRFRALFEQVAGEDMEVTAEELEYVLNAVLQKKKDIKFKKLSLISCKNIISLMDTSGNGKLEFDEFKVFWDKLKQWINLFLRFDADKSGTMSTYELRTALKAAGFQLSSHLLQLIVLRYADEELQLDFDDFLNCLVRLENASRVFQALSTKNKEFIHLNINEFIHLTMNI
T2 sequence (P04632 1-268 partner): T1 sequence (P04632 1-268 partner)
Outline: as §1

[2] = tested on: Calpain activity in SH-SY5Y cells; assay: SH-SY5Y spectrin breakdown product (SBDP-150) western blot assay; assay type: cell-based; conditions: Homo sapiens, read-out: SH-SY5Y Spectrin IC50
Human Calpain 2/NS1 = molecular target: T3, Human Calpain 2/NS1 (Homo sapiens, UniProt P17655); assay: Calpain inhibition, continuous fluorescence (FRET substrate) assay, calpain 2; assay type: biochemical; conditions: SensoLyte 520 FRET substrate, 25C
T3 sequence (P17655 1-700): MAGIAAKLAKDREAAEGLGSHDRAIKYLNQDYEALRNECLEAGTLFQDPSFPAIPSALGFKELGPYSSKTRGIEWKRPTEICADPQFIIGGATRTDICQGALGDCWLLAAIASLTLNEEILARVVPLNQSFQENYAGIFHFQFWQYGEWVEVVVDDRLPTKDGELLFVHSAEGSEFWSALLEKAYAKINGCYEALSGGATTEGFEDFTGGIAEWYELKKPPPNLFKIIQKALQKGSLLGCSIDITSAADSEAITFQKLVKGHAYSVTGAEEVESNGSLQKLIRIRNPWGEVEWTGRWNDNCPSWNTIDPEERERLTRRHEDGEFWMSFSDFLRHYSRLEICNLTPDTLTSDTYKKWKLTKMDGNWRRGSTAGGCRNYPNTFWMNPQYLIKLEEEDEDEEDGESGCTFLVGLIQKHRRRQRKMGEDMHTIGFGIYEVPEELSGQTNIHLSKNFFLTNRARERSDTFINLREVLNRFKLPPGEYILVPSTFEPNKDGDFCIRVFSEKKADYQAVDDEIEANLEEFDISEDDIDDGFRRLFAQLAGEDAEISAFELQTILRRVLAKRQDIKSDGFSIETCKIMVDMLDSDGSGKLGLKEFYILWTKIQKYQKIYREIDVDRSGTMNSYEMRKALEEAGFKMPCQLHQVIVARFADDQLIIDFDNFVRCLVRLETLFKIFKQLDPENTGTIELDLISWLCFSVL
T3 sequence (P04632 1-268 partner): T1 sequence (P04632 1-268 partner)
Outline: as §1

[3] = SH-SY5Y cells, 100 uM Suc-LLVY-AMC
[4] = SH-SY5Y cells, 25 uM A23187, SBDP-150 western blot

SMILES | IC50 (Human Calpain 1/NS1) [µM] | IC50 [1, 3] [µM] | IC50 (Human Calpain 9/NS1) [µM] | IC50 [2, 4] [µM] | IC50 (Human Calpain 2/NS1) [µM] | IC50 ([1]; SH-SY5Y) [µM] | IC50 ([2]; SH-SY5Y) [µM]
Cc1cc(-c2nn(C)cc2C(=O)NC(Cc2ccccc2)C(=O)C(N)=O)c(C)o1 (stereo not drawn) [Compound 55, N-(4-AMINO-3,4-DIOXO-1-PHENYLBUTAN-2-YL-3-(2,5-DIMETHYLFURAN-3-YL)-1-METHYL-1H-PYRAZOLE-4-CARBOXAMIDE] | < 3 | < 10 | < 3 | > 25 | < 3 | – | –
O=C(NC(Cc1ccccc1)C(=O)Nc1ncco1)c1nsnc1-c1ccccc1 (stereo not drawn) [Compound 57, N-(1-(OXAZOL-2-YLAMINO)-1-OXO-3-PHENYLPROPAN-2-YL)-4-PHENYL-1,2,5-THIADIAZOLE-3-CARBOXAMIDE] | > 10 | > 25 | > 10 | > 25 | > 10 | – | –
Cc1cc(C(=O)NC(Cc2ccccc2)C(=O)C(N)=O)nn1-c1nccc(-c2ccccc2)n1 (stereo not drawn) [Compound 59, N-(4-AMINO-3,4-DIOXO-1-PHENYLBUTAN-2-YL)-5-METHYL-1-(4-PHENYLPYRIMIDIN-2-YL)-1H-PYRAZOLE-3-CARBOXAMIDE] | > 10 | – | > 10 | – | 3 to 10 | < 10 | > 25
Cn1cc2c(-c3nn(C(F)F)cc3C(=O)NC(Cc3ccccc3)C(=O)C(N)=O)cccc2n1 (stereo not drawn) [Compound 61, N-(4-AMINO-3,4-DIOXO-1-PHENYLBUTAN-2-YL)-1-(DIFLUOROMETHYL)-3-(2-METHYL-2H-INDAZOL-4-YL)-1H-PYRAZOLE-4-CARBOXAMIDE] | < 3 | < 10 | < 3 | < 10 | < 3 | – | –
Cn1ncc2c(-c3nn(C(F)F)cc3C(=O)NC(Cc3ccccc3)C(=O)C(N)=O)cccc21 (stereo not drawn) [Compound 62, N-(4-AMINO-3,4-DIOXO-1-PHENYLBUTAN-2-YL)-1-(DIFLUOROMETHYL)-3-(1-METHYL-1H-INDAZOL-4-YL)-1H-PYRAZOLE-4-CARBOXAMIDE] | < 3 | < 10 | < 3 | < 10 | < 3 | – | –
Cc1nc(-c2ccccc2F)c(C(=O)NC(Cc2ccccc2)C(=O)C(=O)O)o1 (stereo not drawn) [Compound 64, 3-(4-(2-FLUOROPHENYL)-2-METHYLOXAZOLE-5-CARBOXAMIDO)-2-OXO-4-PHENYLBUTANOIC ACID] | < 3 | < 10 | < 3 | > 25 | < 3 | – | –
Cn1cc(C(=O)NC(Cc2ccccc2)C(=O)C(=O)O)c(-c2ccccc2F)n1 (stereo not drawn) [Compound 65, 3-(3-(2-FLUOROPHENYL)-1-METHYL-1H-PYRAZOLE-4-CARBOXAMIDO)-2-OXO-4-PHENYLBUTANOIC ACID] | < 3 | < 10 | < 3 | > 25 | < 3 | – | –
Cn1cc(C(=O)NC(Cc2ccccc2)C(=O)C(N)=O)c(-c2cccc3ocnc23)n1 (stereo not drawn) [Compound 68, N-(4-AMINO-3,4-DIOXO-1-PHENYLBUTAN-2-YL)-3-(BENZO[D]OXAZOL-4-YL)-1-METHYL-1H-PYRAZOLE-4-CARBOXAMIDE] | < 3 | < 10 | < 3 | 10 to 25 | < 3 | – | –
NC(=O)C(=O)C(Cc1ccccc1)NC(=O)c1cn(C(F)F)nc1-c1cccc2scnc12 (stereo not drawn) [Compound 70, N-(4-AMINO-3,4-DIOXO-1-PHENYLBUTAN-2-YL)-3-(BENZO[D]THIAZOL-4-YL)-1-(DIFLUOROMETHYL)-1H-PYRAZOLE-4-CARBOXAMIDE] | < 3 | < 10 | < 3 | < 10 | < 3 | – | –
NC(=O)C(=O)C(Cc1ccccc1)NC(=O)c1cn(C(F)F)nc1-c1cccc2ocnc12 (stereo not drawn) [Compound 71, N-(4-AMINO-3,4-DIOXO-1-PHENYLBUTAN-2-YL)-3-(BENZO[D]OXAZOL-4-YL)-1-(DIFLUOROMETHYL)-1H-PYRAZOLE-4-CARBOXAMIDE] | < 3 | < 10 | < 3 | < 10 | < 3 | – | –

Second part, led by results:

IC50 (Human Calpain 1/NS1) [µM] | IC50 [1, 3] [µM] | IC50 (Human Calpain 9/NS1) [µM] | IC50 [2, 4] [µM] | IC50 (Human Calpain 2/NS1) [µM] | SMILES | IC50 ([1]; SH-SY5Y) [µM] | IC50 ([2]; SH-SY5Y) [µM]
< 3 | < 10 | < 3 | < 10 | < 3 | Cc1nc(-c2cccc3ccccc23)c(C(=O)NC(Cc2ccccc2)C(=O)C(N)=O)o1 (stereo not drawn) [Compound 58, N-(4-AMINO-3,4-DIOXO-1-PHENYLBUTAN-2-YL)-2-METHYL-4-(NAPHTHALEN-1-YL)OXAZOLE-5-CARBOXAMIDE] | – | –
< 3 | 10 to 25 | < 3 | 10 to 25 | < 3 | O=C(O)C(=O)C(Cc1ccccc1)NC(=O)c1cn(C2CC2)nc1-c1ccccc1 (stereo not drawn) [Compound 60, 3-(1-CYCLOPROPYL-3-PHENYL-1H-PYRAZOLE-4-CARBOXAMIDO)-2-OXO-4-PHENYLBUTANOIC ACID] | – | –
< 3 | < 10 | < 3 | 10 to 25 | < 3 | NC(=O)C(=O)C(Cc1ccccc1)NC(=O)c1cn(C(F)F)nc1-c1ncnc2ccccc12 (stereo not drawn) [Compound 63, N-(4-AMINO-3,4-DIOXO-1-PHENYLBUTAN-2-YL)-1-(DIFLUOROMETHYL)-3-(QUINAZOLIN-4-YL)-1H-PYRAZOLE-4-CARBOXAMIDE] | – | –
< 3 | < 10 | < 3 | < 10 | < 3 | O=C(O)C(=O)C(Cc1ccccc1)NC(=O)c1nsnc1-c1ccccc1 (stereo not drawn) [Compound 67, 2-OXO-4-PHENYL-3-(4-PHENYL-1,2,5-THIADIAZOLE-3-CARBOXAMIDO)BUTANOIC ACID] | – | –
< 3 | 10 to 25 | < 3 | 10 to 25 | < 3 | Cn1cc(C(=O)NC(Cc2ccccc2)C(=O)C(N)=O)c(-c2cccc3nn(C)cc23)n1 (stereo not drawn) [Compound 69, N-(4-AMINO-3,4-DIOXO-1-PHENYLBUTAN-2-YL)-1-METHYL-3-(2-METHYL-2H-INDAZOL-4-YL)-1H-PYRAZOLE-4-CARBOXAMIDE] | – | –

— patent US20210009564A1, “CALPAIN MODULATORS AND THERAPEUTIC USES THEREOF” (BLADE THERAPERTICS, INC., priority 2018, published 2021)
